Molecules are shown by their SMILES.

The test system of this experiment is Felis catus. The experiment can be described thus: Reduction in infarct volume in cat at 0.5 mg/kg administered as bolus dose at 15 mins before middle cerebral artery occlusion followed by infusion of 0.14 mg/kg/hr measured after 6 hrs. Set-up: scale not given: the % may be the effect or the level left. Format: functional.

The compound `C[C@]12N[C@H](Cc3ccccc31)c1ccccc12.O=C(O)/C=C/C(=O)O` came in with an Activity of 75%.
